Assay [1] has as its system MCF7. Briefly: Anticancer activity against human MCF7 cells assessed as inhibition of cell growth incubated for 24 hrs by MTT assay. Format: functional, cell-based. Particulars: MCF7, 24 h. Background: Formazan colour is commonly taken as a measure of viable cells.
The subject of assay [2] is HeLa. Briefly: Anticancer activity against human HeLa cells assessed as inhibition of cell growth incubated for 24 hrs by MTT assay. It is filed as functional, cell-based.
The subject of assay [3] is HepG2. In words: Anticancer activity against human HepG2 cells assessed as inhibition of cell growth incubated for 24 hrs by MTT assay. It is filed as functional, cell-based. Particulars: HepG2, 24 h.
For assay [4], the system named is HCT-116. In words: Anticancer activity against human HCT116 cells assessed as inhibition of cell growth incubated for 24 hrs by MTT assay. It is filed as functional, cell-based. Particulars: HCT-116, 24 h.
Assay [5] concerns PC-3. Briefly: Anticancer activity against human PC3 cells assessed as inhibition of cell growth incubated for 24 hrs by MTT assay. It is filed as functional, cell-based. Particulars: PC-3, 24 h.
In assay [6] the target is Epidermal growth factor receptor (Homo sapiens, UniProt P00533). Briefly: Inhibition of human EGFR-TK using PTK substrate after 40 mins in presence of ATP by Kinase-Glo luminescent assay. A general note: Kinase-Glo measures the ATP left after a reaction by luminescence.
In assay [7] the test system is MCF7. Briefly: Induction of apoptosis in human MCF7 cells assessed as necrotic cells after 24 hrs by Annexin V-FITC/propidium iodide double staining based FACSCalibur flow cytometry analysis (reference value: 0.46 %). Format: functional. Background: Flow cytometry measures light scatter and fluorescence of single cells or particles in a stream.
Assay [8] has as its system MCF7. Briefly: Cell cycle arrest in human MCF7 cells assessed as accumulation of cells at S phase at IC50 after 24 hrs by propidium iodide/RNase staining based FACSCalibur flow cytometry analysis (reference value: 26.49 %). It is filed as functional.
For assay [9], the system named is MCF7. In words: Induction of apoptosis in human MCF7 cells assessed as viable cells after 24 hrs by Annexin V-FITC/propidium iodide double staining based FACSCalibur flow cytometry analysis (reference value: 97.89 %). Format: functional.
Assay [10] deals with MCF7. In words: Cell cycle arrest in human MCF7 cells assessed as accumulation of cells at pre-G1 phase at IC50 after 24 hrs by propidium iodide/RNase staining based FACSCalibur flow cytometry analysis (reference value: 2.11 %). Format: functional.
Assay [11] deals with MCF7. In words: Induction of apoptosis in human MCF7 cells assessed as late apoptotic cells after 24 hrs by Annexin V-FITC/propidium iodide double staining based FACSCalibur flow cytometry analysis (reference value: 0.43 %). It is filed as functional.
In assay [12] the test system is MCF7. In words: Cell cycle arrest in human MCF7 cells assessed as accumulation of cells at G0/G1 phase at IC50 after 24 hrs by propidium iodide/RNase staining based FACSCalibur flow cytometry analysis (reference value: 57.28 %). Format: functional.
Assay [13] relates to MCF7. In words: Cell cycle arrest in human MCF7 cells assessed as accumulation of cells at G2/M phase at IC50 after 24 hrs by propidium iodide/RNase staining based FACSCalibur flow cytometry analysis (reference value: 16.23 %). It is filed as functional.
Assay [14] has as its system MCF7. Briefly: Induction of apoptosis in human MCF7 cells assessed as cumulative apoptosis after 24 hrs by Annexin V-FITC/propidium iodide double staining based FACSCalibur flow cytometry analysis (reference value: 2.11 %). It is filed as functional.
For assay [15], the system named is MCF7. Briefly: Induction of apoptosis in human MCF7 cells assessed as early apoptotic cells after 24 hrs by Annexin V-FITC/propidium iodide double staining based FACSCalibur flow cytometry analysis (reference value: 1.22 %). It is filed as functional.
Assay [16] has as its system MCF7. Briefly: Induction of apoptosis in human MCF7 cells assessed after 24 hrs by Annexin V-FITC/propidium iodide double staining based FACSCalibur flow cytometry analysis. It is filed as functional, cell-based.

Here are results for 27 compounds from ChEMBL document CHEMBL4619706, “Synthesis, biological evaluation and molecular modeling study of [1,2,4]-Triazolo[4,3-c]quinazolines: New class of EGFR-TK inhibitors” (Bioorg Med Chem, 2020).

For orientation: IC50 means the concentration that gives 50% inhibition.

Epidermal growth factor receptor, sequence (P00533 whole entry): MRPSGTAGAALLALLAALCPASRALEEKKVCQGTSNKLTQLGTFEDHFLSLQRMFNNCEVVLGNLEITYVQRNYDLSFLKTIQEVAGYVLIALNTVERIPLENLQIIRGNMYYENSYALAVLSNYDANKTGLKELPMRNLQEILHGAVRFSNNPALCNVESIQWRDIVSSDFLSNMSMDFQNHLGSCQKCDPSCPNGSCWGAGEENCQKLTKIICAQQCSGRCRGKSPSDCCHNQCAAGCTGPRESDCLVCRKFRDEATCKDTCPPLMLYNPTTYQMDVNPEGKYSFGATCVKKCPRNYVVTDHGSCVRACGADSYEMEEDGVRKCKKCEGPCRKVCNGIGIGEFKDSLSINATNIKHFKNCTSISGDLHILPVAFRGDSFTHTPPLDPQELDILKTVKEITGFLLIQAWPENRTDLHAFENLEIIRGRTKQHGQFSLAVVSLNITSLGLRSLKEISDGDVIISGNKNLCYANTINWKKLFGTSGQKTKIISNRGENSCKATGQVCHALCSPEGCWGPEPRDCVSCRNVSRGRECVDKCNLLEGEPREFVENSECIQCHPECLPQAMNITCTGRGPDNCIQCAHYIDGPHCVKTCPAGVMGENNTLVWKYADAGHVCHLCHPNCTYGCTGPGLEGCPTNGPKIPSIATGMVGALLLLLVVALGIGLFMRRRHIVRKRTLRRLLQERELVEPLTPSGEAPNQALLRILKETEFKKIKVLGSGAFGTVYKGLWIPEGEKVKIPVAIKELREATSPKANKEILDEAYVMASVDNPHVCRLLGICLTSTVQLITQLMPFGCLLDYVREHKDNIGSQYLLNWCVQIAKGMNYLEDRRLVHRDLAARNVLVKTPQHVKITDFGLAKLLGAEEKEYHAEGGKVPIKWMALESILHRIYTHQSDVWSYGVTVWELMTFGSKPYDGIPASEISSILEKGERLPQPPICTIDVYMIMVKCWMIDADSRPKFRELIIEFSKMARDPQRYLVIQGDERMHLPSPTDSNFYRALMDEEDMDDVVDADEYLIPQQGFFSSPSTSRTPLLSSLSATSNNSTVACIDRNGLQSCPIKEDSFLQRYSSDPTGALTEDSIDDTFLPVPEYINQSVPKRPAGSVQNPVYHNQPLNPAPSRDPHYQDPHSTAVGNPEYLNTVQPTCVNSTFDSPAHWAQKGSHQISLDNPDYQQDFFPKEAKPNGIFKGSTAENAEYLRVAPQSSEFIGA

Regarding `O=C(CCl)Nc1nnc2c3ccccc3nc(Sc3ccc(Br)cc3)n12`, the IC50 in [1] was found to be 34.4 µM; in assay [2] it was 30.4 µM; in assay [3], 29.9 µM; in assay [4], 37.5 µM; in assay [5] it was 37.1 µM.
In the case of `CCN1CCN(CCCNc2ccc(Oc3nc4ccccc4c4nncn34)cc2)CC1`, the IC50 in assay [1] stood at 12.9 µM; in assay [2] it was 14.3 µM; in assay [3], 11.5 µM; in [4] it was 13.8 µM; in assay [5], 10.6 µM; in [6], 9.51 µM.
`COc1ccc(/C=N/c2nnc3c4ccccc4nc(Cl)n23)cc1O`: the IC50 in assay [1] was 37.2 µM; in [2] it was 29.4 µM; in assay [3], 49.2 µM; in [4] it was 31 µM; in [5] it was 33.5 µM.
Take `c1ccc(N2CCN(CCCNc3ccc(Oc4nc5ccccc5c5nncn45)cc3)CC2)cc1`: the IC50 in [1] was 30.5 µM; in [2] it was 23.4 µM; in [3], 24.2 µM; in [4], 32.5 µM; in assay [5] it was 51.5 µM.
In the case of `COc1cccc2c1C(=O)c1c(O)c3c(c(O)c1C2=O)C[C@@](O)(C(=O)CO)C[C@@H]3O[C@H]1C[C@H](N)[C@H](O)[C@H](C)O1` [DOXORUBICIN], the Activity was found to be 3.07% in assay [7]; 22.91% in assay [8]; 67.84% in assay [9]; 32.16% in assay [10]; 19.81% in [11]; 32.16% in [12]. Besides, the Activity was determined as 48.57% in assay [13], 32.16% in [14] and 9.28% in assay [15].
`Nc1nc(Nc2nnc3c4ccccc4nc(Sc4ccc(Br)cc4)n23)cs1`: the IC50 in assay [1] worked out at 8.9 µM; in [2] it was 13.4 µM; in assay [3], 10.3 µM; in assay [4], 11.5 µM; in assay [5] it was 10.5 µM; in assay [6], 0.69 µM. For the same compound, the Activity in [7] turned out to be 2.27%; in assay [8], 22.81%; in assay [9], 72.85%; in assay [10] it was 27.15%; in assay [11], 17.3%; in assay [12], 35.76%. The Activity in assay [13] was 41.43%; in assay [16], “Dose-dependent effect”; in [14] it was 27.15%; in [15] it was 7.58%.
On to `O=[N+]([O-])c1cccc(/C=N/c2nnc3c4ccccc4nc(Nc4ccccc4)n23)c1`, for which the IC50 was 40.4 µM in [1]; 31.4 µM in assay [2]; 44.1 µM in assay [3]; 34.6 µM in assay [4]; 35.7 µM in assay [5].
As to `N#CC1=C(N)N(c2nnc3c4ccccc4nc(Sc4ccc(Br)cc4)n23)C(=O)C1`, the IC50 in assay [1] turned out to be 8.58 µM; in assay [2], 9.47 µM; in assay [3] it was 15.3 µM; in assay [4] it was 13.5 µM; in assay [5] it was 10.6 µM; in assay [6] it was 1.8 µM. Besides, the Activity in assay [7] is listed as 1.89%; in assay [8], 25.46%; in assay [9], 80.59%; in assay [10], 19.41%; in [11], 10.26%; in assay [12], 41.33%. In addition, the Activity was 33.21% in [13], “Dose-dependent effect” in assay [16], 19.41% in assay [14] and 7.26% in [15].
As to `C(=N\c1nnc2c3ccccc3nc(Nc3ccccc3)n12)/c1ccccc1`, the IC50 in assay [1] worked out at 20.3 µM; in assay [2] it was 22.3 µM; in assay [3], 19.2 µM; in assay [4] it was 24.8 µM; in [5], 12.6 µM.
For the compound `O=[N+]([O-])c1cccc(/C=N/c2nnc3c4ccccc4nc(Cl)n23)c1`, the IC50 was found to be 48.2 µM in [1]; 73.4 µM in [2]; 55.5 µM in assay [3]; 49.2 µM in [4]; 60.2 µM in [5].
For the compound `O=C(Nc1nnc2c3ccccc3nc(Sc3ccc(Br)cc3)n12)c1ccccc1`, the IC50 in assay [1] is 30.2 µM; in [2] it was 46.4 µM; in assay [3], 32.4 µM; in assay [4] it was 44.2 µM; in [5] it was 29.9 µM.
`Fc1ccc(/C=N/c2nnc3c4ccccc4nc(Cl)n23)cc1`: the IC50 in assay [1] was found to be 25.9 µM; in assay [2], 29.2 µM; in assay [3], 31.2 µM; in [4], 18.5 µM; in assay [5] it was 38.5 µM.
As for `Nc1cc([N+](=O)[O-])ccc1Nc1nc2ccccc2c2nnc(/N=C/C=C/c3ccccc3)n12`, the IC50 turned out to be 32.7 µM in [1]; 36.1 µM in assay [2]; 13.7 µM in assay [3]; 11.6 µM in assay [4]; 25.2 µM in assay [5].
Take `CCN1CCN(CC(=O)Nc2nnc3c4ccccc4nc(Sc4ccc(Br)cc4)n23)CC1`: the IC50 is 12.5 µM in assay [1]; 15.4 µM in assay [2]; 11.6 µM in assay [3]; 15.2 µM in [4]; 10.7 µM in assay [5]; 3.91 µM in [6].
Turning to `CN1CCN(CCCNc2ccc(Oc3nc4ccccc4c4nncn34)cc2)CC1`, the IC50 was determined as 15.3 µM in assay [1]; 12.5 µM in [2]; 16.5 µM in assay [3]; 17.2 µM in assay [4]; 14.3 µM in assay [5].
`c1ccc2c(c1)nc(Oc1ccc(NCCCN3CCOCC3)cc1)n1cnnc21`: the IC50 in assay [1] turned out to be 38.5 µM; in assay [2], 44.3 µM; in assay [3], 46.2 µM; in assay [4], 39.6 µM; in assay [5], 41.6 µM.
Turning to `COc1ccc(/C=N/c2nnc3c4ccccc4nc(Nc4ccc(C)cc4N)n23)cc1O`, the IC50 in [1] stood at 12.3 µM; in assay [2], 10.1 µM; in assay [3], 9.8 µM; in [4], 8.27 µM; in [5], 17.7 µM; in assay [6], 4.28 µM.
`Clc1nc2ccccc2c2nnc(/N=C/C=C/c3ccccc3)n12`: the IC50 came to 8.34 µM in [1]; 9.16 µM in assay [2]; 11.6 µM in assay [3]; 12.9 µM in assay [4]; 16.4 µM in assay [5]; 7.56 µM in assay [6].
For `C(=N\c1nnc2c3ccccc3nc(Nc3ccccc3)n12)/c1ccco1`, the IC50 in assay [1] worked out at 19.7 µM; in assay [2], 15.5 µM; in assay [3], 20.8 µM; in [4] it was 24.4 µM; in [5], 43.9 µM.
`Cc1cccc(Nc2nc3ccccc3c3nnc(/N=C/c4ccc(F)cc4)n23)c1`: the concentration for half-maximal inhibition (IC50) in assay [1] came out at 18.2 µM; in assay [2], 26.5 µM; in assay [3] it was 24.2 µM; in assay [4], 20.4 µM; in [5], 30.5 µM.
For `O=C(Nc1nnc2c3ccccc3nc(Sc3ccc(Br)cc3)n12)c1ccc(Cl)c([N+](=O)[O-])c1`, the IC50 came to 19.8 µM in assay [1]; 16.2 µM in assay [2]; 18.2 µM in assay [3]; 20.4 µM in [4]; 16.8 µM in assay [5].
In the same order, the values of `CN1CCN(CC(=O)Nc2nnc3c4ccccc4nc(Sc4ccc(Br)cc4)n23)CC1` are 24.4 µM, 35.1 µM, 27.2 µM, 44.9 µM and 41.7 µM.
Take `O=C(CN1CCOCC1)Nc1nnc2c3ccccc3nc(Sc3ccc(Br)cc3)n12`: the IC50 in assay [1] was determined as 55.6 µM; in [2] it was 47.1 µM; in assay [3], 50.3 µM; in assay [5], 61.5 µM.
For the compound `Nc1ccc(Oc2nc3ccccc3c3nncn23)cc1`, the IC50 in assay [1] was found to be 20.5 µM; in [2], 25.7 µM; in [3], 26.2 µM; in assay [4], 27.6 µM; in [5], 26.7 µM.
As to `Clc1nc2ccccc2c2nnc(/N=C/c3ccccc3)n12`, the IC50 in assay [1] turned out to be 17.1 µM; in [2], 34.7 µM; in [3], 19.3 µM; in [4], 22.5 µM; in [5] it was 27.5 µM.
For the compound `O=C1CSCC(=O)N1c1nnc2c3ccccc3nc(Sc3ccc(Br)cc3)n12`, the IC50 in assay [1] was 9.48 µM; in assay [2], 11.8 µM; in assay [3], 8.43 µM; in assay [4], 12 µM; in assay [5] it was 10.7 µM; in [6], 4.1 µM.
In the case of `Nc1nnc2c3ccccc3nc(Sc3ccc(Br)cc3)n12`, the IC50 worked out at 57.3 µM in assay [1]; 45.2 µM in assay [2]; 44.9 µM in assay [3]; 63.5 µM in [4]; 59.5 µM in [5].
